{"source": "paper PMC4738175", "about": "(Cancer letters, 2015)", "key": {"[1]": {"tested_on": "phosphorylation of MEK1/2 and ERK1/2", "assay": "Western blot of phosphorylated MEK1/2 and ERK1/2 in PK03 cells", "assay_type": "cell-based, mouse", "conditions": "PK03 cells, 3, 10 or 30μM, 24 hours"}, "phosphorylation of c-RAF": {"tested_on": "phosphorylation of c-RAF", "assay": "Western blot of phosphorylated c-RAF in PK03 cells", "assay_type": "cell-based, mouse", "conditions": "PK03 cells, 3, 10 or 30μM, 24 hours"}, "sEH [2]": {"tested_on": "sEH", "assay": "Plasma oxylipin metabolic profile by LC-MS/MS in mice implanted with PK03 cells", "assay_type": "in vivo"}, "[3]": {"conditions": "cited from earlier work"}, "in vivo": {"assay": "in vivo", "conditions": "male, Swiss Webster, mouse, po, 1 mg/kg"}, "PK03 cells [4]": {"tested_on": "PK03 cells", "assay": "Colony formation assay in PK03 cells", "conditions": "Mus musculus, read-out: IC50 dose, PK03 cell growth"}, "PK03 tumors": {"tested_on": "PK03 tumors", "assay": "Histopathology and immunohistochemistry", "conditions": "10mg/kg; for number of MPO-labeled neutrophils/macrophages per high power field: 40X objective lens, P< 0.05 vs control; for tumor morphology vs PK03 control tumors: histopathology"}, "sEH [5]": {"target": "T1, sEH (Homo sapiens, UniProt P34913)", "T1 sequence (P34913 1-555)": "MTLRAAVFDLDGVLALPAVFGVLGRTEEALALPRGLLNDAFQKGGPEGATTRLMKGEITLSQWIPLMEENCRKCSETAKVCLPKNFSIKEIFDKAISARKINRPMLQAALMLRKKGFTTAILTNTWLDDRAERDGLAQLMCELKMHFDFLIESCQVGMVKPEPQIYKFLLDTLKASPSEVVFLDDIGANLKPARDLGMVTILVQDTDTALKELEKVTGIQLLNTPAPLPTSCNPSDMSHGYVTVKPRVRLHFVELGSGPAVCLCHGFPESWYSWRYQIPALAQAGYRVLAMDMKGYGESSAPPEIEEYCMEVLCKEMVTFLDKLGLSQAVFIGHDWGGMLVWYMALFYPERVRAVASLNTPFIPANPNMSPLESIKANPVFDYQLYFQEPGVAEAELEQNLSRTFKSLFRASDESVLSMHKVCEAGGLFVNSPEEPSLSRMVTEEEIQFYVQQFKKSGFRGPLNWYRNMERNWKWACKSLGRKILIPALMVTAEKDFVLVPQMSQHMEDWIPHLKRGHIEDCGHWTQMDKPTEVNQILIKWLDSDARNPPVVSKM", "assay": "sEH enzyme assay", "assay_type": "biochemical", "conditions": "read-out: sEH IC50"}, "Toxicity in mice": {"assay": "Toxicity in mice", "assay_type": "in vivo", "conditions": "35 days treatment"}, "PK03 cells [6]": {"tested_on": "PK03 cells", "conditions": "10mg/kg body weight in drinking water, end of 5 weeks, vs PK03 control"}, "phosphorylated ERK1/2": {"tested_on": "phosphorylated ERK1/2", "assay": "Immunohistochemical staining of phosphorylated ERK1/2 in PK03 tumors", "conditions": "10mg/kg, n = 3 mice/group, vs PK03 control"}}}
{"smiles": "CNC(=O)c1cc(Oc2ccc(NC(=O)Nc3ccc(Cl)c(C(F)(F)F)c3)cc2)ccn1", "note": "[Sorafenib, reference compound]", "values": [{"measurement": "inhibition of phosphorylation of MEK1/2 and ERK1/2", "setting": "[1]", "result": "significantly inhibited"}, {"measurement": "inhibition of phosphorylation of c-RAF", "setting": "phosphorylation of c-RAF", "result": "but not by sorafenib or t-AUCB"}, {"measurement": "effect on cyclooxygenase and lipoxygenase mediated metabolites (prostaglandins, thromboxane, leukotrienes, HETE)", "setting": "sEH [2]", "result": "no significant difference"}, {"measurement": "clinically achievable plasma concentration", "setting": "[3]", "result": 10, "unit": "µM"}, {"measurement": "Tmax", "setting": "in vivo", "result": 2, "unit": "h"}, {"measurement": "half-life", "setting": "in vivo", "result": "1.5 ± 0.5", "unit": "h"}, {"measurement": "IC50", "setting": "PK03 cells [4]", "result": 9, "unit": "µM"}, {"measurement": "number of MPO-labeled neutrophils/macrophages per high power field", "setting": "PK03 tumors", "result": "15.1 ± 9.8"}, {"measurement": "tumor morphology vs PK03 control tumors", "setting": "PK03 tumors", "result": "more glandular differentiation with lumen formation and less inflammatory cells reaction"}]}
{"smiles": "CNC(=O)c1cc(O[C@H]2CC[C@@H](NC(=O)Nc3ccc(Cl)c(C(F)(F)F)c3)CC2)ccn1", "note": "[c-CUPM]", "values": [{"measurement": "IC50", "setting": "sEH [5]", "result": 0.0005, "unit": "µM"}]}
{"smiles": "CNC(=O)c1cc(O[C@H]2CC[C@H](NC(=O)Nc3ccc(Cl)c(C(F)(F)F)c3)CC2)ccn1", "note": "[t-CUPM, trans-4-{4-[3-(4-chloro-3-trifluoromethyl-phenyl)-ureido]-cyclohexyloxy}-pyridine-2-carboxylic acid methylamide]", "values": [{"measurement": "inhibition of phosphorylation of MEK1/2 and ERK1/2", "setting": "[1]", "result": "significantly inhibited"}, {"measurement": "inhibition of phosphorylation of c-RAF", "setting": "phosphorylation of c-RAF", "result": "significantly inhibited"}, {"measurement": "effect on cyclooxygenase and lipoxygenase mediated metabolites (prostaglandins, thromboxane, leukotrienes, HETE)", "setting": "sEH [2]", "result": "no significant difference"}, {"measurement": "toxic effect grossly and histopathologically", "setting": "Toxicity in mice", "result": "did not produce any toxic effect"}, {"measurement": "half-life", "setting": "in vivo", "result": "2.2 ± 1.6", "unit": "h"}, {"measurement": "IC50", "setting": "PK03 cells [4]", "result": 8.1, "unit": "µM"}, {"measurement": "tumor size", "setting": "PK03 cells [6]", "result": "275.9 ± 68.9", "unit": "mm^3"}, {"measurement": "tumor weight", "setting": "PK03 cells [6]", "result": "0.25 ± 0.06", "unit": "g"}, {"measurement": "number of MPO-labeled neutrophils/macrophages per high power field", "setting": "PK03 tumors", "result": "12.4 ± 6.1"}, {"measurement": "tumor morphology vs PK03 control tumors", "setting": "PK03 tumors", "result": "more glandular differentiation with lumen formation and less inflammatory cells reaction"}, {"measurement": "staining intensity of phosphorylated ERK1/2", "setting": "phosphorylated ERK1/2", "result": "60 ± 19.2"}]}
